Measured values reported in PubChem BioAssay (NCI).
Several values for one entry are separate records, joined by “and”; a condition that tells them apart may be missing. Equal entries are not always repeated.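 Cells were grown in 96-well plates and exposed to each compound for 48 hours at five concentrations; endpoints were interpolated linearly between bracketing concentrations, or set to the highest concentration if not reached. The concentration for 50% growth inhibition is given as GI50. The concentration for full growth arrest is given as TGI.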

Each compound was assayed on MDA-MB-468 breast (assay: NCI-60 cell line screen, 48 h).

Compared with `O=C(NCc1ccc(Cn2c(=O)sn(-c3ccccc3)c2=O)cc1)OCc1ccc2cccc(O)c2n1`, `NNCCc1ccc(NC(=O)CCCc2ccc(C(=O)Nc3ccccc3N)cc2)cc1` is 20-fold higher in GI50: 0.552 µM for the first, 10.9 µM for the second.

Going from `O=C(Nc1cc(Nc2ncccc2-c2ncnc3nc[nH]c23)ccc1F)c1cc(C(F)(F)F)cc(C(F)(F)F)c1` to `Cc1cn(-c2cc(C(=O)Nc3cccc(-n4ccc5c(NC(=O)c6ccccc6)nccc54)c3)cc(C(F)(F)F)c2)cn1`, the GI50 falls from 3 µM to 0.229 µM (13-fold).

Compared with `COc1ccc(-c2nc(-c3cc(OC)cc(OC)c3)[nH]c2-c2ccc(OC)cc2)cc1`, `COc1ccc(-c2nn(-c3cccc(Cl)c3)cc2-c2cc(-c3ccccc3)[nH]c(=O)c2C#N)cc1` is 1.8-fold lower in GI50: 2.78 µM for the first, 1.55 µM for the second.

`CC1(C)CN=C(NN=C(/C=C/c2ccc(C(F)(F)F)cc2)/C=C/c2ccc(C(F)(F)F)cc2)NC1` and `N#CCCN1C/C(=C/c2ccc(Br)cc2)C(=O)/C(=C/c2ccc(Br)cc2)C1` are within 1.5-fold of each other in GI50: 1.28 µM for the first, 1.5 µM for the second.

First: Cc1cc(Nc2nc(-c3cn(-c4ccc(Cl)cc4)nn3)nc3ccccc23)n[nH]1
Second: Cc1cc(N/N=C/c2ccccn2)nc2ccccc12
The GI50 of the first is 41-fold higher: 10.4 µM for the first, 0.252 µM for the second.

`CCN(CC)CCCCCCNc1cccc2cc(Br)cnc12` and `CCCCCCCCCCNC(=O)CI` are within 1.5-fold of each other in GI50: 1.96 µM for the first, 2.14 µM for the second.

Compared with `O=C(NNc1nc2cc(F)cc(F)c2n2cccc12)c1ncccn1`, `C#CCOc1cccc(Nc2ncnc3c(NC(=O)C=C)cccc23)c1` is 8.3-fold higher in GI50: 0.59 µM for the first, 4.91 µM for the second.

`CC(C)[C@H](O)C(=O)N[C@@H](C)C(=O)N[C@@H]1C(=O)N(C)CCc2ccccc21` and `N[C@H](CCC(=O)N[C@@H](Cc1c[nH]c2ccccc12)C(=O)O)C(=O)O` cannot be ordered by GI50: over 100 µM for the first, over 100 µM for the second.

Compared with `CO[C@H]1Nc2c(ccc(C)c2O)C(=O)N2C=C(/C=C/C(N)=O)C[C@@H]12`, `O=C1Nc2ccccc2/C1=C1\CCc2cc(O)ccc21` is 160-fold higher in GI50: 0.0208 µM for the first, 3.33 µM for the second.

First: COc1cc2c(Nc3cc(Cl)c(OC)c(Cl)c3)c(C#N)cnc2cc1OCCCN1CCN(C)CC1
Second: Cn1cc(-c2csc(-c3cn(CCCCN4CCCCC4)c4ccccc34)n2)c2cccnc21
The GI50 of the first is 6-fold lower: 0.267 µM for the first, 1.61 µM for the second.

Compared with `ClCCN(CCCl)c1ccc(CNc2ccccc2)cc1`, `N=C(N)c1ccc(-c2ccc(-c3cccs3)s2)cc1` is 38-fold lower in GI50: 2.14 µM for the first, 0.0564 µM for the second.

Compared with `COc1ccc(/C(C)=C(\c2ccc(OCCN3CCCCCC3)cc2)c2ccc(OC(=O)C3CCCCC3)cc2)cc1`, `COc1ccc(-c2cnnn2-c2nonc2-n2cccc2)cc1` is 5.7-fold lower in GI50: 0.737 µM for the first, 0.13 µM for the second.

First: Cc1ccc(OCCOCCOCCOCCOc2ccc(C)n(O)c2=S)c(=S)n1O
Second: COc1cc(/C=C\c2cc(OC)c(OC)c(OC)c2)cc(N/C=C\C(=O)c2c[nH]c3ccccc23)c1OC
The GI50 of the first is lower: under 0.0174 µM for the first, 1.28 µM for the second.

`c1ccc2c(c1)[nH]c1c2cc[n+]2cc3c(cc12)CCCC3` and `Nc1cc2c(cc1Br)[nH]c(=O)c1ccccc12` are within 1.5-fold of each other in GI50: 1.12 µM for the first, 1.21 µM for the second.

Going from `Nc1cc(Br)c(-c2nnc(CCC(=O)c3nc4ccccc4[nH]3)o2)c(Br)c1` to `CC(C)c1[nH]nc2c1N=C(c1ccccc1Cl)c1cc([N+](=O)[O-])ccc1N2`, the GI50 rises from 1.93 µM to 2.93 µM (1.5-fold).

First: C=CC(=O)N1CN(C(=O)C=C)CN(C(=O)C=C)C1
Second: CC(C)(C)[Si](C)(C)OC1[C@@H](CNC(=O)NC(=O)CCl)O[C@@H](n2cnc3c(N)ncnc32)[C@H]1O[Si](C)(C)C(C)(C)C (some centres not stated)
The GI50 of the first is 1.8-fold higher: 1.46 µM for the first, 0.802 µM for the second.

Going from `CN(C)C(=S)SSC(=S)N(C)C` to `O=C(/C(=C\c1c(-c2ccccc2)[nH]c2ccccc12)S(=O)(=O)c1ccccc1)c1ccccc1`, the GI50 falls from 17.1 µM to 4.18 µM (4.1-fold).

Going from `O=C(NCc1ccc(Cn2c(=O)sn(-c3ccccc3)c2=O)cc1)OCc1ccc2cccc(O)c2n1` to `NNCCc1ccc(NC(=O)CCCc2ccc(C(=O)Nc3ccccc3N)cc2)cc1`, the TGI rises from 2.14 µM to 40.1 µM (19-fold).

First: O=C(Nc1cc(Nc2ncccc2-c2ncnc3nc[nH]c23)ccc1F)c1cc(C(F)(F)F)cc(C(F)(F)F)c1
Second: Cc1cn(-c2cc(C(=O)Nc3cccc(-n4ccc5c(NC(=O)c6ccccc6)nccc54)c3)cc(C(F)(F)F)c2)cn1
The TGI of the first is 8-fold higher: 8.36 µM for the first, 1.04 µM for the second.

Going from `COc1ccc(-c2nc(-c3cc(OC)cc(OC)c3)[nH]c2-c2ccc(OC)cc2)cc1` to `COc1ccc(-c2nn(-c3cccc(Cl)c3)cc2-c2cc(-c3ccccc3)[nH]c(=O)c2C#N)cc1`, the TGI falls from over 100 µM to 7.51 µM.

`CC1(C)CN=C(NN=C(/C=C/c2ccc(C(F)(F)F)cc2)/C=C/c2ccc(C(F)(F)F)cc2)NC1` and `N#CCCN1C/C(=C/c2ccc(Br)cc2)C(=O)/C(=C/c2ccc(Br)cc2)C1` are within 1.5-fold of each other in TGI: 2.72 µM for the first, 3.62 µM for the second.

Compared with `Cc1cc(Nc2nc(-c3cn(-c4ccc(Cl)cc4)nn3)nc3ccccc23)n[nH]1`, `Cc1cc(N/N=C/c2ccccn2)nc2ccccc12` is 12-fold lower in TGI: 30.5 µM for the first, 2.6 µM for the second.

`CCN(CC)CCCCCCNc1cccc2cc(Br)cnc12` and `CCCCCCCCCCNC(=O)CI` are within 1.5-fold of each other in TGI: 4.46 µM for the first, 4.86 µM for the second.

Going from `O=C(NNc1nc2cc(F)cc(F)c2n2cccc12)c1ncccn1` to `C#CCOc1cccc(Nc2ncnc3c(NC(=O)C=C)cccc23)c1`, the TGI rises from 3.79 µM to 25.4 µM (6.7-fold).

`CC(C)[C@H](O)C(=O)N[C@@H](C)C(=O)N[C@@H]1C(=O)N(C)CCc2ccccc21` and `N[C@H](CCC(=O)N[C@@H](Cc1c[nH]c2ccccc12)C(=O)O)C(=O)O` cannot be ordered by TGI: over 100 µM for the first, over 100 µM for the second.

Going from `CO[C@H]1Nc2c(ccc(C)c2O)C(=O)N2C=C(/C=C/C(N)=O)C[C@@H]12` to `O=C1Nc2ccccc2/C1=C1\CCc2cc(O)ccc21`, the TGI rises from 0.0465 µM to over 21.8 µM.

Going from `COc1cc2c(Nc3cc(Cl)c(OC)c(Cl)c3)c(C#N)cnc2cc1OCCCN1CCN(C)CC1` to `Cn1cc(-c2csc(-c3cn(CCCCN4CCCCC4)c4ccccc34)n2)c2cccnc21`, the TGI rises from 1.64 µM to 3.29 µM (2-fold).

First: ClCCN(CCCl)c1ccc(CNc2ccccc2)cc1
Second: N=C(N)c1ccc(-c2ccc(-c3cccs3)s2)cc1
The TGI of the first is 20-fold higher: 23.4 µM for the first, 1.15 µM for the second.

Compared with `COc1ccc(/C(C)=C(\c2ccc(OCCN3CCCCCC3)cc2)c2ccc(OC(=O)C3CCCCC3)cc2)cc1`, `COc1ccc(-c2cnnn2-c2nonc2-n2cccc2)cc1` is 3.9-fold lower in TGI: 2.84 µM for the first, 0.721 µM for the second.

`Cc1ccc(OCCOCCOCCOCCOc2ccc(C)n(O)c2=S)c(=S)n1O` and `COc1cc(/C=C\c2cc(OC)c(OC)c(OC)c2)cc(N/C=C\C(=O)c2c[nH]c3ccccc23)c1OC` are within 1.5-fold of each other in TGI: 5.33 µM for the first, 3.66 µM for the second.

Compared with `c1ccc2c(c1)[nH]c1c2cc[n+]2cc3c(cc12)CCCC3`, `Nc1cc2c(cc1Br)[nH]c(=O)c1ccccc12` is 1.8-fold higher in TGI: 2.98 µM for the first, 5.41 µM for the second.

Compared with `Nc1cc(Br)c(-c2nnc(CCC(=O)c3nc4ccccc4[nH]3)o2)c(Br)c1`, `CC(C)c1[nH]nc2c1N=C(c1ccccc1Cl)c1cc([N+](=O)[O-])ccc1N2` is 2.3-fold higher in TGI: 6.97 µM for the first, 15.7 µM for the second.

Going from `C=CC(=O)N1CN(C(=O)C=C)CN(C(=O)C=C)C1` to `CC(C)(C)[Si](C)(C)OC1[C@@H](CNC(=O)NC(=O)CCl)O[C@@H](n2cnc3c(N)ncnc32)[C@H]1O[Si](C)(C)C(C)(C)C` (some centres not stated), the TGI falls from 3.4 µM to 1.71 µM (2-fold).

Compared with `CN(C)C(=S)SSC(=S)N(C)C`, `O=C(/C(=C\c1c(-c2ccccc2)[nH]c2ccccc12)S(=O)(=O)c1ccccc1)c1ccccc1` is higher in TGI: 37.5 µM for the first, over 100 µM for the second.

For `COc1ccc(-c2ccc3c(N4CCOC[C@@H]4C)nc(N4CCOC[C@@H]4C)nc3n2)cc1CO`, the GI50 was 0.00533 µM and 0.018 µM.
`OC(c1cc(-c2ccc(C(F)(F)F)cc2)nc(C(F)(F)F)c1)C1CCCCN1` (configuration not stated) was tested, and the GI50 was 1.61 µM and 1.5 µM.

For `COc1ccc(-c2ccc3c(N4CCOC[C@@H]4C)nc(N4CCOC[C@@H]4C)nc3n2)cc1CO`, the TGI was 0.0199 µM and 0.195 µM.
`OC(c1cc(-c2ccc(C(F)(F)F)cc2)nc(C(F)(F)F)c1)C1CCCCN1` (configuration not stated) was tested, and the TGI was 3.33 µM and 2.83 µM.
